Tested on: MV-4-11 cells
Test: Gene expression microarray analysis (Affymetrix PrimeView) and GSEA
Format: cell-based, human
Design: RFU PODN (11730768_x_at) / Fold change /veh PODN (11730768_x_at) / RFU LINC00158 (11744669_a_at) / Fold change /veh LINC00158 (11744669_a_at) / RFU DUSP10 (11751237_a_at) / Fold change /veh DUSP10 (11751237_a_at) / RFU ID3 (11757404_x_at) / Fold change /veh ID3 (11757404_x_at) / RFU PLEKHG5 (11737974_s_at) / Fold change /veh PLEKHG5 (11737974_s_at) / RFU LRRC4B (11730491_at) / Fold change /veh LRRC4B (11730491_at) / RFU GIMAP4 (11747438_a_at) / Fold change /veh GIMAP4 (11747438_a_at) / RFU KRT8 (11758183_x_at) / Fold change /veh KRT8 (11758183_x_at) / RFU CNN1 (11734310_a_at) / Fold change /veh CNN1 (11734310_a_at) / RFU VPS37D (11726825_at) / Fold change /veh VPS37D (11726825_at) / RFU C10orf10 (11716522_x_at) / Fold change /veh C10orf10 (11716522_x_at) / RFU KIR2DL2 /// KIR2DL4 /// KIR2DL5A /// KIR2DL5B /// KIR2DS1 /// KIR2DS2 /// KIR2DS3 /// KIR2DS4 /// KIR3DL3 /// KIR3DL3 /// KIR3DS1 (11738374_at) / Fold change /veh KIR2DL2 /// KIR2DL4 /// KIR2DL5A /// KIR2DL5B /// KIR2DS1 /// KIR2DS2 /// KIR2DS3 /// KIR2DS4 /// KIR3DL3 /// KIR3DL3 /// KIR3DS1 (11738374_at) / RFU C1QL1 (11718748_at) / Fold change /veh C1QL1 (11718748_at) / RFU TMPRSS4 (11747572_a_at) / Fold change /veh TMPRSS4 (11747572_a_at) / RFU HAMP (11756126_x_at) / Fold change /veh HAMP (11756126_x_at) / RFU RNFT2 (11725882_a_at) / Fold change /veh RNFT2 (11725882_a_at) / RFU NR4A2 (11747474_a_at) / Fold change /veh NR4A2 (11747474_a_at) / RFU ABCC12 (11746883_a_at) / Fold change /veh ABCC12 (11746883_a_at) / RFU TMEM136 (11760407_x_at) / Fold change /veh TMEM136 (11760407_x_at) / RFU CLDN22 /// WWC2 (11732394_at) / Fold change /veh CLDN22 /// WWC2 (11732394_at) / RFU HLA-DPB1 (11760878_x_at) / Fold change /veh HLA-DPB1 (11760878_x_at) / RFU SPINT1 (11716480_a_at) / Fold change /veh SPINT1 (11716480_a_at) / RFU GAP43 (11754022_s_at) / Fold change /veh GAP43 (11754022_s_at) / RFU A4GNT (11735810_at) / Fold change /veh A4GNT (11735810_at) / RFU PRB3 (11715151_x_at) / Fold change /veh PRB3 (11715151_x_at) / RFU TUBB4B (11761932_at) / Fold change /veh TUBB4B (11761932_at) / RFU CAPN14 (11732068_a_at) / Fold change /veh CAPN14 (11732068_a_at) / RFU TMCC2 (11721928_a_at) / Fold change /veh TMCC2 (11721928_a_at) / RFU IRGQ (11745062_a_at) / Fold change /veh IRGQ (11745062_a_at) / RFU FAM174B (11720279_a_at) / Fold change /veh FAM174B (11720279_a_at) / RFU TMPRSS4 (11748680_a_at) / Fold change /veh TMPRSS4 (11748680_a_at) / RFU FAM212B (11763350_a_at) / Fold change /veh FAM212B (11763350_a_at) / RFU PLEKHG5 (11743358_a_at) / Fold change /veh PLEKHG5 (11743358_a_at) / RFU ZSCAN30 (11745921_a_at) / Fold change /veh ZSCAN30 (11745921_a_at) / RFU CMKLR1 (11741424_a_at) / Fold change /veh CMKLR1 (11741424_a_at) / RFU LOC101060620 /// MAPK8IP1 (11723275_at) / Fold change /veh LOC101060620 /// MAPK8IP1 (11723275_at) / RFU SPTSSB (11747773_x_at) / Fold change /veh SPTSSB (11747773_x_at) / RFU PRSS12 (11739890_at) / Fold change /veh PRSS12 (11739890_at) / RFU BIN1 (11741810_x_at) / Fold change /veh BIN1 (11741810_x_at) / RFU WNT11 (11732464_a_at) / Fold change /veh WNT11 (11732464_a_at) / RFU C10orf10 (11716521_a_at) / Fold change /veh C10orf10 (11716521_a_at) / RFU C5orf56 (11738089_at) / Fold change /veh C5orf56 (11738089_at) / RFU CYB561 (11721691_x_at) / Fold change /veh CYB561 (11721691_x_at) / RFU ANKRD19P (11752326_a_at) / Fold change /veh ANKRD19P (11752326_a_at) / RFU OR2T12 /// OR2T33 /// OR2T8 (11738714_s_at) / Fold change /veh OR2T12 /// OR2T33 /// OR2T8 (11738714_s_at) / RFU VCAN (11748164_a_at) / Fold change /veh VCAN (11748164_a_at) / RFU JSRP1 (11732532_at) / Fold change /veh JSRP1 (11732532_at) / RFU KRTAP10-11 (11738290_x_at) / Fold change /veh KRTAP10-11 (11738290_x_at) / RFU MYO3A (11730013_a_at) / Fold change /veh MYO3A (11730013_a_at) / RFU EBF3 (11725865_a_at) / Fold change /veh EBF3 (11725865_a_at) / RFU CAMK2N1 (11719241_x_at) / Fold change /veh CAMK2N1 (11719241_x_at) / RFU C5orf56 (11738088_a_at) / Fold change /veh C5orf56 (11738088_a_at) / RFU OLFML3 (11715873_a_at) / Fold change /veh OLFML3 (11715873_a_at) / RFU LOC100653217 /// NTM (11731650_a_at) / Fold change /veh LOC100653217 /// NTM (11731650_a_at) / RFU MAPK11 (11762145_a_at) / Fold change /veh MAPK11 (11762145_a_at) / RFU FIZ1 (11724087_x_at) / Fold change /veh FIZ1 (11724087_x_at) / RFU OASL (11726364_x_at) / Fold change /veh OASL (11726364_x_at) / RFU SOX15 (11748057_x_at) / Fold change /veh SOX15 (11748057_x_at) / RFU CD79A (11719716_a_at) / Fold change /veh CD79A (11719716_a_at) / RFU HIST1H1D (11736915_at) / Fold change /veh HIST1H1D (11736915_at) / RFU CASKIN2 (11723855_a_at) / Fold change /veh CASKIN2 (11723855_a_at) / RFU LOC730098 (11760151_x_at) / Fold change /veh LOC730098 (11760151_x_at) / RFU OR4N2 (11742367_at) / Fold change /veh OR4N2 (11742367_at) / RFU PRRT2 (11749266_a_at) / Fold change /veh PRRT2 (11749266_a_at) / RFU SNX32 (11753110_a_at) / Fold change /veh SNX32 (11753110_a_at) / RFU CDHR5 (11726645_a_at) / Fold change /veh CDHR5 (11726645_a_at) / RFU RCAN1 (11760418_a_at) / Fold change /veh RCAN1 (11760418_a_at) / RFU FAM167A (11723789_a_at) / Fold change /veh FAM167A (11723789_a_at) / RFU FAM26E (11764081_at) / Fold change /veh FAM26E (11764081_at) / RFU ISYNA1 (11749810_s_at) / Fold change /veh ISYNA1 (11749810_s_at) / RFU ACY1 (11761880_at) / Fold change /veh ACY1 (11761880_at) / RFU 11764098_at / Fold change /veh 11764098_at / RFU SAMD14 (11745864_x_at) / Fold change /veh SAMD14 (11745864_x_at) / RFU NPB (11741838_a_at) / Fold change /veh NPB (11741838_a_at) / RFU TMPRSS6 (11731388_a_at) / Fold change /veh TMPRSS6 (11731388_a_at) / RFU KRTAP10-2 (11738614_at) / Fold change /veh KRTAP10-2 (11738614_at) / RFU ARHGAP8 /// PRR5-ARHGAP8 (11727945_x_at) / Fold change /veh ARHGAP8 /// PRR5-ARHGAP8 (11727945_x_at) / RFU KRTAP5-7 /// NADSYN1 (11734609_at) / Fold change /veh KRTAP5-7 /// NADSYN1 (11734609_at) / RFU RASL12 (11751679_a_at) / Fold change /veh RASL12 (11751679_a_at) / RFU CDKN2B (11736163_a_at) / Fold change /veh CDKN2B (11736163_a_at) / RFU PRF1 (11729649_at) / Fold change /veh PRF1 (11729649_at) / RFU, ZNF638 /// ZNF638-IT1 / Fold change vs veh, ZNF638 /// ZNF638-IT1 / RFU, PANK3 / Fold change vs veh, PANK3 / RFU, SH3YL1 / Fold change vs veh, SH3YL1 / RFU, ZEB2 / Fold change vs veh, ZEB2 / RFU, NRIP1 / Fold change vs veh, NRIP1 / RFU, PTTG1IP / Fold change vs veh, PTTG1IP / RFU, CAPN2 / Fold change vs veh, CAPN2 / RFU, MED14 / Fold change vs veh, MED14 / RFU, SNORA58 / Fold change vs veh, SNORA58 / RFU, C1orf63 / Fold change vs veh, C1orf63 / RFU, LRRFIP1 / Fold change vs veh, LRRFIP1 / RFU, NDUFAF7 / Fold change vs veh, NDUFAF7 / RFU, SLC12A2 / Fold change vs veh, SLC12A2 / RFU, IBTK / Fold change vs veh, IBTK / RFU, ESF1 / Fold change vs veh, ESF1 / Fold change vs veh, TMEM50B / RFU, TAOK1 / Fold change vs veh, TAOK1 / RFU, ACBD3 / Fold change vs veh, ACBD3 / RFU, TMA16 / Fold change vs veh, TMA16 / RFU, RWDD3 / Fold change vs veh, RWDD3 / RFU, BCAT1 / Fold change vs veh, BCAT1 / RFU, EDEM3 / Fold change vs veh, EDEM3 / RFU, TMEM33 / Fold change vs veh, TMEM33 / RFU, WDR75 / Fold change vs veh, WDR75 / RFU, AHCTF1 / Fold change vs veh, AHCTF1 / RFU, TFRC / Fold change vs veh, TFRC / RFU, ZDHHC17 / Fold change vs veh, ZDHHC17 / RFU, NOM1 / Fold change vs veh, NOM1 / RFU, ARL8B / Fold change vs veh, ARL8B / RFU, ZBTB11 / Fold change vs veh, ZBTB11 / RFU, TAMM41 / Fold change vs veh, TAMM41 / RFU, KIAA1704 /// LOC100996395 / Fold change vs veh, KIAA1704 /// LOC100996395 / RFU, ING1 / Fold change vs veh, ING1 / RFU, TRMT61B / Fold change vs veh, TRMT61B / RFU, FUBP3 / Fold change vs veh, FUBP3 / RFU, TP53 / Fold change vs veh, TP53 / RFU, TNKS2 / Fold change vs veh, TNKS2 / RFU, ZFP14 / Fold change vs veh, ZFP14 / RFU, ACTR2 / Fold change vs veh, ACTR2 / RFU, PPP3R1 / Fold change vs veh, PPP3R1 / RFU, PIK3R1 / Fold change vs veh, PIK3R1 / RFU, HNRNPA1 / Fold change vs veh, HNRNPA1 / RFU, RNF170 / Fold change vs veh, RNF170 / RFU, ZNF28 / Fold change vs veh, ZNF28 / RFU, RNGTT / Fold change vs veh, RNGTT / RFU, OGT / Fold change vs veh, OGT / RFU, BRD1 / Fold change vs veh, BRD1 / RFU, MARS / Fold change vs veh, MARS / RFU, ZNF655 / Fold change vs veh, ZNF655 / RFU, FAHD1 / Fold change vs veh, FAHD1 / RFU, BDP1 / Fold change vs veh, BDP1 / RFU, LRRCC1 / Fold change vs veh, LRRCC1 / RFU, ARID1A / Fold change vs veh, ARID1A / RFU, ZNF146 / Fold change vs veh, ZNF146 / RFU, ZNF330 / Fold change vs veh, ZNF330 / RFU, GPN3 / Fold change vs veh, GPN3 / RFU, C9orf123 / Fold change vs veh, C9orf123 / RFU, N4BP2L2 / Fold change vs veh, N4BP2L2 / RFU, ARFIP1 / Fold change vs veh, ARFIP1 / RFU, FAM179B / Fold change vs veh, FAM179B / RFU, BCL10 / Fold change vs veh, BCL10 / RFU, UHRF1BP1L / Fold change vs veh, UHRF1BP1L / RFU, BET1 / Fold change vs veh, BET1 / RFU, CNOT2 / Fold change vs veh, CNOT2 / RFU, ZNF268 / Fold change vs veh, ZNF268 / Fold change vs veh, ZNF507 / RFU, DGCR2 / Fold change vs veh, DGCR2 / RFU, WDSUB1 / Fold change vs veh, WDSUB1 / Fold change vs veh, HSP90B1 /// MIR3652 / RFU, ADSS / Fold change vs veh, ADSS / RFU, GK / Fold change vs veh, GK / RFU, ZNF148 / Fold change vs veh, ZNF148 / RFU, TAF9 / Fold change vs veh, TAF9 / RFU, SLC1A5 / Fold change vs veh, SLC1A5 / RFU, SLMO2 / Fold change vs veh, SLMO2 / RFU, ABCC4 / Fold change vs veh, ABCC4 / RFU, LOC101060439 /// RAP1B / Fold change vs veh, LOC101060439 /// RAP1B / RFU, RFX7 / Fold change vs veh, RFX7 / RFU, GTPBP10 / Fold change vs veh, GTPBP10 / RFU, CNEP1R1 / Fold change vs veh, CNEP1R1 / RFU, BIVM-ERCC5 /// ERCC5 / Fold change vs veh, BIVM-ERCC5 /// ERCC5 / RFU, ILF3 / Fold change vs veh, ILF3 / RFU 11762660_at / Fold change /veh 11762660_at / RFU VCAN (11757783_s_at) / Fold change /veh VCAN (11757783_s_at) / RFU DDX43 (11728927_at) / Fold change /veh DDX43 (11728927_at) / RFU KRT8 (11758188_x_at) / Fold change /veh KRT8 (11758188_x_at) / RFU NKD1 (11759106_at) / Fold change /veh NKD1 (11759106_at) / RFU SRD5A1 (11742802_a_at) / Fold change /veh SRD5A1 (11742802_a_at) / RFU TPSAB1 /// TPSB2 (11721975_s_at) / Fold change /veh TPSAB1 /// TPSB2 (11721975_s_at) / RFU GSTM3 (11746129_a_at) / Fold change /veh GSTM3 (11746129_a_at) / RFU IL23R (11737362_x_at) / Fold change /veh IL23R (11737362_x_at) / RFU TMEM51 (11727254_a_at) / Fold change /veh TMEM51 (11727254_a_at) / RFU PIWIL2 (11732686_x_at) / Fold change /veh PIWIL2 (11732686_x_at) / RFU ORM1 (11744905_x_at) / Fold change /veh ORM1 (11744905_x_at) / RFU CCDC152 (11743942_at) / Fold change /veh CCDC152 (11743942_at) / RFU ECM1 (11717891_a_at) / Fold change /veh ECM1 (11717891_a_at) / RFU IL23R (11748794_a_at) / Fold change /veh IL23R (11748794_a_at) / RFU TNFAIP8L3 (11732012_x_at) / Fold change /veh TNFAIP8L3 (11732012_x_at) / RFU MBOAT4 (11741988_at) / Fold change /veh MBOAT4 (11741988_at) / RFU 11764193_at / Fold change /veh 11764193_at / RFU TMEM53 (11763286_at) / Fold change /veh TMEM53 (11763286_at) / RFU MAGEB2 (11727129_at) / Fold change /veh MAGEB2 (11727129_at) / RFU TMEM200A (11744735_a_at) / Fold change /veh TMEM200A (11744735_a_at) / RFU CCDC152 (11751479_a_at) / Fold change /veh CCDC152 (11751479_a_at) / RFU FAM211A (11726209_a_at) / Fold change /veh FAM211A (11726209_a_at) / RFU RGS16 (11746705_a_at) / Fold change /veh RGS16 (11746705_a_at) / RFU VCAN (11755009_s_at) / Fold change /veh VCAN (11755009_s_at) / RFU RHOB (11743442_s_at) / Fold change /veh RHOB (11743442_s_at) / RFU RGS16 (11720943_a_at) / Fold change /veh RGS16 (11720943_a_at) / RFU RGS16 (11720944_at) / Fold change /veh RGS16 (11720944_at) / RFU, VPS4B / Fold change vs veh, VPS4B / RFU, CREB1 / Fold change vs veh, CREB1 / RFU, DNAJC13 / Fold change vs veh, DNAJC13 / RFU, GNAQ / Fold change vs veh, GNAQ / RFU, CDK5R1 / Fold change vs veh, CDK5R1 / RFU, ZRANB3 / Fold change vs veh, ZRANB3 / RFU, CUL4A / Fold change vs veh, CUL4A / RFU, CCNY / Fold change vs veh, CCNY / RFU, UFL1 / Fold change vs veh, UFL1 / RFU, COG3 / Fold change vs veh, COG3 / RFU, DIAPH2 / Fold change vs veh, DIAPH2 / RFU, SKA2 / Fold change vs veh, SKA2 / RFU, AFF3 / Fold change vs veh, AFF3 / RFU, LMF1 / Fold change vs veh, LMF1 / RFU, IPO11 / Fold change vs veh, IPO11 / RFU, DFFB / Fold change vs veh, DFFB / RFU, FOXP1 / Fold change vs veh, FOXP1 / RFU, CARD8 / Fold change vs veh, CARD8 / RFU, STRN3 / Fold change vs veh, STRN3 / RFU, ADK / Fold change vs veh, ADK / RFU, RASSF2 / Fold change vs veh, RASSF2 / RFU, WIPF1 / Fold change vs veh, WIPF1 / RFU, LARP1B / Fold change vs veh, LARP1B / RFU, RASA1 / Fold change vs veh, RASA1 / RFU, RB1 / Fold change vs veh, RB1 / RFU, PPFIA1 / Fold change vs veh, PPFIA1 / RFU, MAT2A / Fold change vs veh, MAT2A / RFU, CCT5 / Fold change vs veh, CCT5 / RFU, WDR92 / Fold change vs veh, WDR92 / RFU, CUX1 / Fold change vs veh, CUX1 / RFU, TTC7A / Fold change vs veh, TTC7A / RFU, TMEM135 / Fold change vs veh, TMEM135 / RFU, DEPTOR / Fold change vs veh, DEPTOR / RFU, CPM / Fold change vs veh, CPM / RFU, DNAJB6 / Fold change vs veh, DNAJB6 / RFU, CACNA2D3 / Fold change vs veh, CACNA2D3 / RFU, DTX4 / Fold change vs veh, DTX4 / RFU, TFCP2 / Fold change vs veh, TFCP2 / RFU, GMCL1 /// GMCL1P1 / Fold change vs veh, GMCL1 /// GMCL1P1 / RFU, AEBP2 / Fold change vs veh, AEBP2 / RFU, SNHG1 /// SNORD22 /// SNORD25 /// SNORD26 /// SNORD27 /// SNORD28 /// SNORD29 /// SNORD31 / Fold change vs veh, SNHG1 /// SNORD22 /// SNORD25 /// SNORD26 /// SNORD27 /// SNORD28 /// SNORD29 /// SNORD31 / Fold change (Aza/veh), C12orf56 (ProbeSet 11735607_a_at) / Fold change (ACY-1035/veh), C12orf56 (ProbeSet 11735607_a_at) / Fold change (Aza/veh), FGFR1OP (ProbeSet 11751329_s_at) / Fold change (ACY-1035/veh), FGFR1OP (ProbeSet 11751329_s_at) / Fold change (Aza/veh), VPS36 (ProbeSet 11739960_a_at) / Fold change (ACY-1035/veh), VPS36 (ProbeSet 11739960_a_at) / RFU SYPL1 (11715823_x_at) / Fold change /veh SYPL1 (11715823_x_at) / RFU IGFBP7 (11715501_s_at) / Fold change /veh IGFBP7 (11715501_s_at) / RFU REEP3 (11722064_at) / Fold change /veh REEP3 (11722064_at) / RFU IGLL1 (11728026_x_at) / Fold change /veh IGLL1 (11728026_x_at): dose or concentration left out as unconfirmed
Settings: ProbeSet 11731583_a_at; LIST D

In the case of `Nc1ccc(-c2cccs2)cc1NC(=O)c1ccc2c(c1)cc(C1CC1)n2CCN1CCOCC1` [ACY-1035], the “Fold change vs veh, LARP1B” value is reported as 0.85.
